Source: patent US11098038B2, “Imidazole-based anticancer agents and derivatives thereof, and methods of making and using same” (The University of Toledo, priority 2017, dated 2021)

Key:
[1] = tested on: U251; test: NCI 60 screen, U251; format: cell-based; settings: Homo sapiens, U-251, CNS
Method: (§1) The compounds synthesized were tested at the National Cancer Institute (NCI) for anti-proliferative activity in the 60 human tumor cell line assay.

[2] = tested on: SW-620; test: NCI 60 screen, SW-620; format: cell-based; settings: Homo sapiens, Colon
Method: as §1

[3] = tested on: A498; test: NCI 60 screen, A498; format: cell-based; settings: Homo sapiens, Renal
Method: as §1

[4] = tested on: OVCAR-5; test: NCI 60 screen, OVCAR-5; format: cell-based; settings: Homo sapiens, Ovarian
Method: as §1

[5] = tested on: HCT15; test: NCI 60 screen, HCT15; format: cell-based; settings: Homo sapiens, HCT-15, Colon
Method: as §1

[6] = tested on: IGROV1; test: NCI 60 screen, IGROV1; format: cell-based; settings: Homo sapiens, IGROV-1, Ovarian
Method: as §1

[7] = tested on: MOLT-4; test: NCI 60 screen, MOLT-4; format: cell-based; settings: Homo sapiens, Leukemia
Method: as §1

[8] = tested on: LOX IMVI; test: NCI 60 screen, LOX IMVI; format: cell-based; settings: Homo sapiens, Melanoma
Method: as §1

[9] = tested on: HL-60(TB); test: NCI 60 screen, HL-60(TB); format: cell-based; settings: Homo sapiens, Leukemia
Method: as §1

[10] = tested on: SF-295; test: NCI 60 screen, SF-295; format: cell-based; settings: Homo sapiens, CNS
Method: as §1

[11] = tested on: SR; test: NCI 60 screen, SR; format: cell-based; settings: Homo sapiens, Leukemia
Method: as §1

[12] = tested on: OVCAR-8; test: NCI 60 screen, OVCAR-8; format: cell-based; settings: Homo sapiens, Ovarian
Method: as §1

[13] = tested on: MCF7; test: NCI 60 screen, MCF7; format: cell-based; settings: Homo sapiens, Breast
Method: as §1

[14] = tested on: T-47D; test: NCI 60 screen, T-47D; format: cell-based; settings: Homo sapiens, T47D, Breast
Method: as §1

[15] = tested on: A549/ATCC; test: NCI 60 screen, A549/ATCC; format: cell-based; settings: Homo sapiens, Non-Small Cell Lung
Method: as §1

[16] = tested on: RXF393; test: NCI 60 screen, RXF393; format: cell-based; settings: Homo sapiens, RXF 393, Renal
Method: as §1

[17] = tested on: HT29; test: NCI 60 screen, HT29; format: cell-based; settings: Homo sapiens, HT-29, Colon
Method: as §1

[18] = tested on: SN12C; test: NCI 60 screen, SN12C; format: cell-based; settings: Homo sapiens, Renal
Method: as §1

[19] = tested on: MDA-MB-231/ATCC; test: NCI 60 screen, MDA-MB-231/ATCC; format: cell-based; settings: Homo sapiens, Breast
Method: as §1

[20] = tested on: SK-OV-3; test: NCI 60 screen, SK-OV-3; format: cell-based; settings: Homo sapiens, Ovarian
Method: as §1

[21] = tested on: CCRF-CEM; test: NCI 60 screen, CCRF-CEM; format: cell-based; settings: Homo sapiens, Leukemia
Method: as §1

[22] = tested on: COLO 205; test: NCI 60 screen, COLO 205; format: cell-based; settings: Homo sapiens, Colon
Method: as §1

[23] = tested on: TK-10; test: NCI 60 screen, TK-10; format: cell-based; settings: Homo sapiens, Renal
Method: as §1

[24] = tested on: HS 578T; test: NCI 60 screen, HS 578T; format: cell-based; settings: Homo sapiens, Breast
Method: as §1

[25] = tested on: SF-539; test: NCI 60 screen, SF-539; format: cell-based; settings: Homo sapiens, CNS
Method: as §1

[26] = tested on: SK-MEL-2; test: NCI 60 screen, SK-MEL-2 (first line); format: cell-based; settings: Homo sapiens; Melanoma, SK-MEL-2 (first of two lines so named, r37)
Method: as §1

[27] = tested on: M14; test: NCI 60 screen, M14; format: cell-based; settings: Homo sapiens, Melanoma
Method: as §1

[28] = tested on: NCI-322M; test: NCI 60 screen, NCI-322M; format: cell-based; settings: Homo sapiens, Non-Small Cell Lung
Method: as §1

[29] = tested on: KM12; test: NCI 60 screen, KM12; format: cell-based; settings: Homo sapiens, Colon
Method: as §1

[30] = tested on: SNB-75; test: NCI 60 screen, SNB-75; format: cell-based; settings: Homo sapiens, CNS
Method: as §1

[31] = tested on: CAKI-1; test: NCI 60 screen, CAKI-1; format: cell-based; settings: Homo sapiens, Renal
Method: as §1

[32] = tested on: MDA-MB-435; test: NCI 60 screen, MDA-MB-435; format: cell-based; settings: Homo sapiens, Melanoma
Method: as §1

[33] = tested on: HCC-2998; test: NCI 60 screen, HCC-2998; format: cell-based; settings: Homo sapiens, Colon
Method: as §1

[34] = tested on: EKVX; test: NCI 60 screen, EKVX; format: cell-based; settings: Homo sapiens, Non-Small Cell Lung
Method: as §1

[35] = tested on: SF-268; test: NCI 60 screen, SF-268; format: cell-based; settings: Homo sapiens, CNS
Method: as §1

[36] = tested on: PC-3; test: NCI 60 screen, PC-3; format: cell-based; settings: Homo sapiens, Prostatic
Method: as §1

[37] = tested on: HOP-62; test: NCI 60 screen, HOP-62; format: cell-based; settings: Homo sapiens, Non-Small Cell Lung
Method: as §1

[38] = tested on: MALME-3M; test: NCI 60 screen, MALME-3M; format: cell-based; settings: Homo sapiens, Melanoma
Method: as §1

[39] = tested on: MDA-MB-468; test: NCI 60 screen, MDA-MB-468; format: cell-based; settings: Homo sapiens, Breast
Method: as §1

[40] = tested on: 786-0; test: NCI 60 screen, 786-0; format: cell-based; settings: Homo sapiens, Renal
Method: as §1

[41] = tested on: NCI-H226; test: NCI 60 screen, NCI-H226; format: cell-based; settings: Homo sapiens, Non-Small Cell Lung
Method: as §1

[42] = tested on: UACC-62; test: NCI 60 screen, UACC-62; format: cell-based; settings: Homo sapiens, Melanoma
Method: as §1

[43] = tested on: UACC-257; test: NCI 60 screen, UACC-257; format: cell-based; settings: Homo sapiens, Melanoma
Method: as §1

[44] = tested on: HCT-116; test: NCI 60 screen, HCT-116; format: cell-based; settings: Homo sapiens, Colon
Method: as §1

[45] = tested on: NCI-H522; test: NCI 60 screen, NCI-H522; format: cell-based; settings: Homo sapiens, Non-Small Cell Lung
Method: as §1

[46] = tested on: DU-145; test: NCI 60 screen, DU-145; format: cell-based; settings: Homo sapiens, Prostatic
Method: as §1

[47] = tested on: BT-549; test: NCI 60 screen, BT-549; format: cell-based; settings: Homo sapiens, Breast
Method: as §1

[48] = tested on: NCI/ADR-RES; test: NCI 60 screen, NCI/ADR-RES; format: cell-based; settings: Homo sapiens, Ovarian
Method: as §1

[49] = tested on: SNB-19; test: NCI 60 screen, SNB-19; format: cell-based; settings: Homo sapiens, CNS
Method: as §1

[50] = tested on: SK-MEL-5; test: NCI 60 screen, SK-MEL-5; format: cell-based; settings: Homo sapiens, Melanoma
Method: as §1

[51] = tested on: K-562; test: NCI 60 screen, K-562; format: cell-based; settings: Homo sapiens, K562, Leukemia
Method: as §1

[52] = tested on: NCI-460; test: NCI 60 screen, NCI-460; format: cell-based; settings: Homo sapiens, Non-Small Cell Lung
Method: as §1

[53] = tested on: UO-31; test: NCI 60 screen, UO-31; format: cell-based; settings: Homo sapiens, Renal
Method: as §1

[54] = tested on: RPMI-8226; test: NCI 60 screen, RPMI-8226; format: cell-based; settings: Homo sapiens, Leukemia
Method: as §1

[55] = tested on: OVCAR-3; test: NCI 60 screen, OVCAR-3; format: cell-based; settings: Homo sapiens, Ovarian
Method: as §1

[56] = tested on: NCI-H23; test: NCI 60 screen, NCI-H23; format: cell-based; settings: Homo sapiens, Non-Small Cell Lung
Method: as §1

[57] = tested on: HOP-92; test: NCI 60 screen, HOP-92; format: cell-based; settings: Homo sapiens, Non-Small Cell Lung
Method: as §1

[58] = tested on: OVCAR-4; test: NCI 60 screen, OVCAR-4; format: cell-based; settings: Homo sapiens, Ovarian
Method: as §1

[59] = tested on: ACHN; test: NCI 60 screen, ACHN; format: cell-based; settings: Homo sapiens, Renal
Method: as §1

[60] = tested on: SK-MEL-2; test: NCI 60 screen, SK-MEL-2 (second line); format: cell-based; settings: Homo sapiens; Melanoma, SK-MEL-2 (second of two lines so named, r38)
Method: as §1

[61] = tested on: chromosome alignment, centromeres, and spindle body; test: Fluorescence microscopy of chromosome alignment, centromeres and spindle body; format: cell-based; settings: cells treated for several hours, FIGS. 8A-8B
Source text: FIGS. 8A-8B: Color images showing effects of compound 25 on chromosome alignment, centromeres, and spindle body. Microtubules that make up the mitotic spindle are detected with an antibody linked to a green fluorophore, which was detected with a fluorescence microscope. Centromeres were detected with a far red fluorophore (they are pseudocolored pink). DNA was detected with Hoechst DNA stain, which is blue.
In normal cells (FIG. 8A, upper two panels), chromosomes line up between the spindle poles at metaphase. In cells treated with compound 25 for several hours (FIG. 8A, lower two panels), cells still enter mitosis but centromeres are found all over the cell (not just in the middle between the poles of the spindle). […] However, when ZM is combined with compound 25, what was observed was a very dramatic disruption of spindle architecture. […] Without wishing to be bound by theory, it is believed that both Aurora B and the targets of compound 25 work in parallel to control tubulin function. When either one is inhibited alone, there is no effect since the other pathway compensates. When both are inhibited, the defect is detected.

Compound `CCn1ccnc1C(=O)/C=C/c1ccc(CC(=O)Nc2ccc(F)cc2)cc1` [Compound 31, (E)-2-(4-(3-(1-ethyl-1H-imidazol-2-yl)-3-oxoprop-1-en-1-yl)phenyl)-N-(4-fluorophenyl)acetamide] has a GI50 [1] of 1.88 µM, a GI50 [2] of 4.29 µM and a GI50 [3] of 3.73 µM. The GI50 [4] was 4.97 µM, the GI50 [5] was 1.93 µM and the GI50 [6] was 4.63 µM. It also gave a GI50 [7] of 5.28 µM, a GI50 [8] of 0.56 µM and a GI50 [9] of 3.18 µM. It also gave a GI50 [10] of 4.41 µM, a GI50 [11] of 0.53 µM and a GI50 [12] of 4.86 µM. It also gave a GI50 [13] of 2.52 µM, a GI50 [14] of 3.8 µM and a GI50 [15] of 4.16 µM. It also gave a GI50 [16] of 3.39 µM, a GI50 [17] of 5.64 µM and a GI50 [18] of 3.71 µM. The melting point was 219 to 220 °C, the GI50 [19] was 3.36 µM and the GI50 [20] was 6.97 µM. It also gave a GI50 [21] of 4.34 µM, a GI50 [22] of 4.29 µM and a GI50 [23] of 6.01 µM. For the same compound, the GI50 [24] was 5.36 µM, the GI50 [25] was 2.93 µM and the GI50 [26] was 6.26 µM. It also gave a GI50 [27] of 3.02 µM, a GI50 [28] of 3.49 µM and a GI50 [29] of 3.06 µM. For the same compound, the GI50 [30] was 2.81 µM, the GI50 [31] was 5.08 µM and the GI50 [32] was 4.58 µM. For the same compound, the GI50 [33] was 5.1 µM, the GI50 [34] was 3.59 µM and the GI50 [35] was 3.81 µM. It also gave a GI50 [36] of 7.06 µM, a GI50 [37] of 3.92 µM and a GI50 [38] of 16.7 µM. For the same compound, the GI50 [39] was 1.99 µM, the GI50 [40] was 4.36 µM and the GI50 [41] was 3.61 µM. For the same compound, the GI50 [42] was 2.83 µM, the GI50 [43] was 14 µM and the GI50 [44] was 1.84 µM. The GI50 [45] was 3.92 µM, the GI50 [46] was 4.45 µM and the GI50 [47] was 2.94 µM. It also gave a GI50 [48] of 5.37 µM, a GI50 [49] of 3.58 µM and a GI50 [50] of 5.74 µM. For the same compound, the GI50 [51] was 2.06 µM, the GI50 [52] was 2.64 µM and the GI50 [53] was 2.65 µM. For the same compound, the GI50 [54] was 2.28 µM, the GI50 [55] was 3.92 µM and the GI50 [56] was 4.25 µM. For the same compound, the GI50 [57] was 3.32 µM, the GI50 [58] was 3.31 µM and the GI50 [59] was 3.95 µM. It also gave a GI50 [60] of 4.92 µM.
For `COc1cc2c(Nc3ccc(NC(=O)c4ccccc4)cc3)ncnc2cc1OCCCN1CCOCC1` [ZM447439, reference compound], the “Chromosome alignment / centromere position” value [61] was “Many misaligned chromosomes”.
